Measured values reported in patent publication US20250135072A1, “COMPOSITIONS COMPRISING A BIOABSORBABLE POLYMER AND METABOLIC INHIBITOR” (Board of Trustees of Michigan State University, priority 2022, published 2025).

What was measured:
[1] = test system: primary macrophages (BMDMs); assay: Cytokine and chemokine protein levels in macrophage supernatants (MILLIPLEX multiplex, IL-6 ELISA); format: cell-based, mouse; conditions: for abnormally increased levels of IL-1β / abnormally increased levels of IL-6 / abnormally increased levels of MCP-1 / abnormally increased levels of TNF-α: macrophages exposed to PLA extract plus inhibitor
Description: Cytokine and chemokine levels were measured using a MILLIPLEX MAP mouse magnetic bead multiplex kit (MilliporeSigma) to assess for IL-6, MCP-1, TNF-a, IL-1b, IL-4, IL-10, IFN-1 and 1L-13 protein expression in supernatants. Data was acquired using Luminex 200 (Luminex Corporation) by the xPONENT software (Version 3.1, Luminex Corporation). […] For statistical analyses, those values were expressed as 3.1 pg/mL. Values exceeding the dynamic range of the assay, in accordance with manufacturer's instruction, were excluded. Additionally, IL-6 ELISA kits (RayBiotech) for supernatants were used according to manufacturer's instructions.

primary BMDMs [2] = assay: Seahorse assays (OCR, ECAR, PER) in primary BMDMs; format: cell-based, mouse; conditions: for metabolic reprogramming: BMDMs exposed to amorphous or crystalline PLA extract, dose-dependent; for ECAR / OCR / PER: Example 2, BMDMs exposed to PLA extracts of varied stereochemistries plus inhibitor
From the text: To determine the metabolic pathways responsible for the observed bioenergetic changes, Seahorse assays were used to measure oxygen consumption rate (OCR), extracellular acidification rate (ECAR) and lactate-linked proton efflux rate (PER) in a customized medium (pH 7.4). Basal measurements of OCR, ECAR, and PER were obtained in real time using the Seahorse XFe-96 Extracellular Flux Analyzer (Agilent Technologies). Prior to running the assay, cell culture medium was washed with and replaced by the Seahorse XF DMEM medium (pH 7.4) supplemented with 25 mM D-glucose and 4 mM glutamine. The Seahorse plates were equilibrated in a non-CO2 incubator for an hour prior to the assay. The Seahorse ATP rate and cell energy phenotype assays were run according to manufacturer's instruction and all reagents for the Seahorse assays were sourced from Agilent Technologies. Wave software (Version 2.6.1) was used to export Seahorse data directly as means±standard deviation (SD).
Seahorse assays measures ECAR as an index of glycolytic flux, OCR as an index of oxidative phosphorylation and PER as an index of monocarboxylate transporter function in live cells; and are used to assess for metabolic reprogramming. Primary BMDMs exposed to amorphous PLA extract were metabolically altered, showing a 2-fold increase in oxidative phosphorylation (OCR; FIG. 10), 3.5-fold increase in glycolytic flux (ECAR; FIG. 11) and 3.5-fold increase in monocarboxylate transporter activity (PER; FIG. 12) in comparison to untreated BMDMs.

[3] = test system: Mouse embryonic fibroblasts (NIH 3T3 cells); assay: ATP levels in MEFs (luciferase bioluminescence in live cells; standard ATP assay on lysates); format: cell-based; conditions: for Total ATP levels in MEFs: MEFs exposed to each of PLLA, PDLA and stereocomplex PLA extracts plus inhibitor; for increased bioenergetic (ATP) levels: amorphous or crystalline PLA extract-treated fibroblasts plus inhibitor, spatiotemporal and dose-dependent
Description: Breakdown products of PLA (hereafter “extracts”) were generated in serum-containing media and used after twelve days of incubation in a shaker at 37° C. The in vitro degradation mimics PLA degradation in vivo. Immune cells were maintained in the PLA extracts for twelve days. BMDMs derived from C57BL/6J mice (Jackson Laboratories) of 3-4 months were used. Mouse embryonic fibroblasts (NIH 3T3 cells, hereafter “MEFs”) were stably transfected with a Sleeping Beauty transposon plasmid (pLuBIG) encoding blasticidin resistance linked to eGFP, and luciferase. Bioluminescence of the fibroblasts served as in indicator of ATP levels. Cell viability was measured using the crystal violet staining assay at room temperature. 50 μL media containing cells is incubated with 150 μL of 99.9% methanol for 15 minutes. 100 μL of 0.5% crystal violet (25% methanol) is added for 20 minutes. Each well is emptied and washed twice with 200 μL phosphate buffered saline for 2 minutes. Absorbance (optical density) was acquired at 570 nm using the SpectraMax M3 Spectrophotometer (Molecular Devices) and SoftMax Pro software (ver. 7.0.2).
To exclude the possibility that changing luciferase expression (by transcription or translation) was responsible for observed bioenergetic changes, wild-type cells were lysed after exposure to PLA extract. Controlled amounts of luciferase and D-luciferin were added to the standard ATP assay. By day 12, there was a 1.9-and 2.3-fold increase in ATP levels among cells exposed to crystalline and amorphous PLA extract, respectively (FIG. 2). To exclude the possibility that PLA extracts affect the biochemical reaction underlying bioenergetic measurements, lysed fibroblasts were exposed to D-luciferin, luciferase and control or PLA extract.
ATP levels in live cells were assessed by bioluminescence on the IVIS Spectrum in vivo imaging system (PerkinElmer) after addition of 150 μg/mL D-luciferin (PerkinElmer). For lysed cells, the standard ATP/ADP kits (Sigma-Aldrich) were used according to manufacturer's instructions.

primary BMDMs [4] = assay: Crystal violet cell viability / cell number assay in primary BMDMs; format: cell-based, mouse; conditions: BMDMs treated with amorphous or crystalline PLA extract
Description: Breakdown products of PLA (hereafter “extracts”) were generated in serum-containing media and used after twelve days of incubation in a shaker at 37° C. […] Immune cells were maintained in the PLA extracts for twelve days. BMDMs derived from C57BL/6J mice (Jackson Laboratories) of 3-4 months were used. Mouse embryonic fibroblasts (NIH 3T3 cells, hereafter “MEFs”) were stably transfected with a Sleeping Beauty transposon plasmid (pLuBIG) encoding blasticidin resistance linked to eGFP, and luciferase. Bioluminescence of the fibroblasts served as in indicator of ATP levels. Cell viability was measured using the crystal violet staining assay at room temperature. 50 μL media containing cells is incubated with 150 μL of 99.9% methanol for 15 minutes. 100 μL of 0.5% crystal violet (25% methanol) is added for 20 minutes. Each well is emptied and washed twice with 200 μL phosphate buffered saline for 2 minutes. Absorbance (optical density) was acquired at 570 nm using the SpectraMax M3 Spectrophotometer (Molecular Devices) and SoftMax Pro software (ver. 7.0.2).

[5] = In-vitro studies indicating effective concentration of 2DG; format: cell-based
Description: Amorphous PLA was compounded with 2DG at 190° C. for 3 mins in a DSM 15 cc mini-extruder (DSM Xplore) and pelletizer (Leistritz Extrusion Technology). Our in-vitro studies indicate 1 mM 2DG to be an effective concentration. Accordingly, we estimated that 18 mg of 2DG in 10 g of amorphous PLA will approximate effective concentrations after accounting for potential thermal degradation of 2DG, converting mM to w/w values. […] To exclude the effect of melt-blending as a confounder in our studies, amorphous PLA controls were processed under the same thermal conditions to make “reprocessed” amorphous PLA. Pellets from melt-blending were made into 1.75 mm diameter filaments using an extruder (Filabot EX2) at 170° C. with air set at 93. For surgical implantation, amorphous PLA filaments were cut into 1 mm lengths; four biomaterials were subcutaneously implanted on the dorsum (back) of each mouse, with two cranially (2.5 cm apart) and two caudally (2.5 cm apart).

[6] = BMDMs, prolonged (day 7) exposure to L-lactic acid
[7] = macrophages exposed to the PLLA and PDLA extracts plus inhibitor

Row | Structure (SMILES) | Total ATP levels in MEFs [3] | increased bioenergetic (ATP) levels [3] | cell viability (primary BMDMs [4]) | abnormally increased levels of IL-1β [1] | abnormally increased levels of IL-6 [1] | abnormally increased levels of MCP-1 [1] | abnormally increased levels of TNF-α [1] | IL-10 levels [1, 7] | metabolic reprogramming (primary BMDMs [2]) | ECAR (primary BMDMs [2]) | OCR (primary BMDMs [2]) | PER (primary BMDMs [2]) | also measured
1 | C[C@H](O)C(=O)O [L-lactic acid] |  |  |  |  |  |  |  |  |  |  |  |  | increase in IL-6 protein expression ([1]; compared to untreated macrophages): 2.3 fold; increase in glycolytic flux (ECAR) (primary BMDMs [2]; [6]): 2.8 fold; increase in monocarboxylate transporter function (PER) (primary BMDMs [2]; [6]): 2.8 fold; increase in oxidative phosphorylation (OCR) (primary BMDMs [2]; [6]): 2.3 fold
2 | O=CC[C@@H](O)[C@H](O)[C@H](O)CO [2DG, 2-deoxyglucose] | decreased | inhibited | selectively reduced | modulated | modulated | modulated | modulated | increased | inhibited | dose-dependent decrease | dose-dependent decrease | dose-dependent decrease | effective concentration [5]: 1 mM
3 | NOCC(=O)O [aminooxyacetic acid] | decreased | inhibited | selectively reduced | modulated | modulated | modulated | modulated | increased | inhibited | dose-dependent decrease | dose-dependent decrease | dose-dependent decrease | increase in IL-10 expression ([1]; amorphous PLA extract plus inhibitor, relative to macrophages exposed to PLA extract): 3.4 fold; IL-10 expression ([1]; crystalline PLA extract plus inhibitor, relative to macrophages exposed to PLA extract): unchanged; IL-10 levels ([1]; macrophages treated with stereocomplex PLA extracts plus inhibitor): further increased
4 | O=C(C=Cc1cccnc1)c1ccncc1 [3PO, 3-(3-pyridinyl)-1-(4-pyridinyl)-2-propen-1-one] | decreased | inhibited | selectively reduced | modulated | modulated | modulated | modulated |  | inhibited | dose-dependent decrease | dose-dependent decrease | dose-dependent decrease | cytokine values ([1]; in some experiments): < 3.2 pg/mL
